In US20070259894A1, “Use of Atazanavir for Improving the Pharmacokinetics of Drugs Metabolized by Ugt1a1” (priority 2004, published 2007):
Where two headings read alike, the source gives them in different places.

Tests used:
[1] = Hygroscopicity by vapor sorption analysis; format: physicochemical; settings: equilibrated at 95% RH at 25° C.
Experimental: Hygroscopicity data was obtained on a VTI Symmetrical Vapor Sorption Analyzer Model SGA-1. Data was collected at room temperature from 5-95% relative humidity and back, 5% relative humidity change per step. Equilibrium conditions were 0.01 weight percent change in 5 minutes with a maximum equilibration time of 180 minutes. […] When equilibrated back down to 5% RH, the material returned back to approximately its dry weight.

[2] = system: glucuronidation of Compound A by rat liver microsomes; assay: Inhibition by atazanavir of glucuronidation of Compound A by rat liver microsomes; format: biochemical; settings: atazanavir at a concentration of 50 μM
Experimental: The IC50 value of atazanavir for inhibition of glucuronidation of Compound A by human liver microsomes was determined using a pool of human liver microsomes (obtained from Xenotech LLC, Lenexa, Kans.). Compound A (as the potassium salt) was added to human liver microsomes (1.0 mg/mL) in a buffer consisting of 0.1 M potassium phosphate buffer (pH=7.4), 5 mM magnesium chloride, 10 μg/mL alamethicin, and 10 mM D-saccharic acid 1,4-lactone. The mixture of Compound A and the buffered microsomes (0.5 mL) was incubated at Compound A's Km (200 μM). UDPGA was added to the incubated sample to a concentration of 4 mM to initiate the glucuronidation reaction, which was stopped after 25 minutes (37° C.) with 2 volumes (i.e., 1 mL) of acetonitrile containing 1.5 μM of Compound B as an internal standard for the subsequent LC/MS analysis. Each of the samples was then centrifuged and the resulting supernatant was diluted 1:1 with 0.1% formic acid in water and a 10 μL aliquot was injected onto the LC/MS to determine the amount of glucuronide formation. […]
The IC50 value of atazanavir for inhibition of glucuronidation of Compound A in the presence of rat liver microsomes was determined using a procedure similar to that just described above for human liver microsomes.

[3] = In vivo rat studies: plasma levels of Compound A with and without atazanavir; parameters: species or system Male Sprague-Dawley rats; settings: for AUC / Cmax: male, Sprague-Dawley, plasma
Experimental: Male Sprague-Dawley rats (4 rats/group) weighing approximately 300 grams each were given orally either 0.5% methylcellulose in water (control group) or atazanavir in 0.5% methylcellulose once a day for three days. The atazanavir daily doses were 50 mg/kg and were administered in 0.5% methylcellulose at 5 mL/kg. On day four the control rats were dosed with 10 mg/kg of Compound A in the form of a potassium salt in 0.5% methylcellulose while the treatment group received atazanavir followed by an oral dose of 10 mg/kg of Compound A (as potassium salt) in 0.5% methylcellulose. Blood samples were taken from all rats in treatment and control groups at 0, 0.25, 0.5, 1, 2, 4, 6, 8, and 24 hours post dose on day 4. Plasma levels of Compound A were determined by LC-MS/MS as follows:
UDP-glucuronosyltransferase activity was determined by measuring the formation of the glucuronide of Compound A. HPLC analysis was carried out on an Agilent HP 1100 gradient system using the following parameters: column=Phenomenex Luna C18-2 (2 mm×150 mm, 5 μm); mobile phase=0.1% formic acid in water (solvent A) and 0.1% formic acid in acetonitrile (solvent B); flow rate=0.2 mL/min; procedure=the initial solvent composition of 10% B was increased to 80% B over 10 minutes, followed by holding solvent B constant at 80% for 3 minutes, and then returning to initial conditions for 6 minutes. The HPLC system was interfaced with a Finnigan TSQ Quantum tandem mass spectrometer. Mass spectral analyses were carried out using electrospray ionization (ESI) in the positive ion mode. The temperature for the ion transfer tube was 320° C. and the ESI ionizing voltage was maintained at 4.4 kV for all analyses. Tandem mass spectrometry (MS/MS) was based on collision-induced dissociation (CID) of ions entering the rf-only octapole region where argon was used as the collision gas at a pressure of 0.8 mtorr. A collision offset at −22 eV was used for MS/MS analyses. The CID transitions used were m/z=621.1→445.1 (Compound A glucuronide) and 431.2→306.1 (Compound B).

[4] = In vivo human studies: plasma PK of Compound A with and without atazanavir; parameters: species or system healthy human male volunteers; settings: for half-life: male, plasma, oral, read-out: alpha phase half-life (converted)
Experimental: The protocol was a 2-period, fixed sequence study in healthy human male volunteers to examine the influence of multiple doses of atazanavir on a single dose of Compound A. In Period 1, 12 subjects received a single oral dose of 100 mg of Compound A (i.e., a tablet as described in Part B of Example 3) (N=10) or placebo (N=2). In Period 2, the same 12 subjects were administered 400 mg atazanavir once daily in an open-label fashion (capsules) for 9 days. On Day 7, the subjects were administered atazanavir in combination with a single oral dose of 100 mg of Compound A (tablet) or placebo (the same subjects received placebo in both study periods). All doses were administered following a moderate-fat meal. Plasma PK samples were collected for 72 hours following the dose of Compound A in both periods.
Sample preparation and analysis: The plasma samples were extracted using 96-well liquid-liquid extraction. Plasma extracts were injected onto an Ace C18 (50×3.0 mm, 3 μm, titanium rits) HPLC column and analyzed under isocratic conditions with a mobile phase consisting of 42.5/57.5 (v/v %) 0.1 mM EDTA in 0.1% formic acid/methanol, at a flow rate of 0.5 mL/minute. The sample extracts were ionized using an APCI interface and were monitored by MRM in the positive ionization mode. The dynamic range of the LC/MS/MS assay was 2-1000 ng/mL based on a 200 μL aliquot of human plasma.
PK Calculations: Area under the curve for a plot of plasma concentration v. time to last detectable concentration (AUC0-last), was calculated using a non-compartmental model and the Linear Up/Log Down calculation method in WinNonlin Version 4.1. Data points after Cmax were fitted to a biexponential equation (A*exp(−αt)+B*exp(−βt)) using WinNonlin v4.1, and AUC values were extrapolated to infinity according to the following equation: […]=AUC0-last+Clast/β, where Clast is the last detectable concentration and β comes from the above-noted biexponential equation. Observed maximum plasma concentration (Cmax), time of Cmax (Tmax), and plasma concentration at 12 hr post dosing (C12hr) were determined by inspection.

[5] = Compound A control group, oral 10 mg/kg (K salt), no atazanavir
[6] = oral Compound A 10 mg/kg (K salt) on day 4 with oral atazanavir 50 mg/kg once a day
[7] = single oral 100 mg Compound A tablet, atazanavir 400 mg once daily, moderate-fat meal

In the case of `Cc1nnc(C(=O)NC(C)(C)c2nc(C(=O)NCc3ccc(F)cc3)c([O-])c(=O)n2C)o1.[K+]`, the “weight increase (hygroscopicity)” value [1] is reported as 1.8%.
With `COC(=O)N[C@H](C(=O)N[C@@H](Cc1ccccc1)[C@@H](O)CN(Cc1ccc(-c2ccccn2)cc1)NC(=O)[C@@H](NC(=O)OC)C(C)(C)C)C(C)(C)C` (relative stereo) [atazanavir, [3S-(3R*, 8′R*, 9′R*, 12R*)]-3,12-bis(1,1-dimethylethyl)-8-hydroxy-4,11-dioxo-9-(phenylmethyl)-6-[[4-(2-pyridinyl)phenylmethyl]2,5,6,10,13-pentaazatetradecanedioic] acid, dimethyl ester] the “inhibition of the glucuronidation of Compound A” value [2] was 41%.
For `Cc1nnc(C(=O)NC(C)(C)c2nc(C(=O)NCc3ccc(F)cc3)c(O)c(=O)n2C)o1` [Compound A, N-(4-fluorobenzyl)-5-hydroxy-1-methyl-2-(1-methyl-1-{[(5-methyl-1,3,4-oxadiazol-2-yl)carbonyl]amino}ethyl)-6-oxo-1,6-dihydroxypyrimidine-4-carboxamide], the “increase of plasma levels of Compound A by atazanavir” value ([3]; atazanavir 50 mg/kg plus Compound A 10 mg/kg versus Compound A alone) was “about 3 fold”, the AUC [3, 5] was 2.9 ± 0.6 µM·h and the Cmax [3, 5] was 2.3 ± 0.9 µM. For the same compound, the AUC [3, 6] was 9.9 ± 3.7 µM·h, the Cmax [3, 6] was 7.2 ± 6.1 µM and the half-life ([4]; 100 mg Compound A alone) was 1.1 h. For the same compound, the half-life ([4]; 100 mg Compound A in the presence of atazanavir 400 mg once daily) was 1.4 h, the “AUC0-last GMR in the presence versus absence of atazanavir” value [4, 7] was 1.73 and the “Cmax GMR in the presence versus absence of atazanavir” value [4, 7] was 1.53. The “geometric mean ratio (GMR) 12 hr concentration in the presence versus absence of atazanavir” value [4, 7] was 1.96.
